From the AptaBench aptamer set (doi:10.1093/nar/gkaf219)

Experiments:
Conditions in all cases: 10 mM Tris-HCl, pH 7.4
[1] = test system: DNA aptamer or structured DNA CTTACGACAAACTTTTGGGTATCTGGTTGGGAGGTTCTGTCGTAAG
[2] = test system: DNA aptamer or structured DNA CTTACGACAAGGGATGTGAGTTAGTGTGTCGGATCTATGTCGTAAG
[3] = test system: DNA aptamer or structured DNA CTTACGACAATGGGGCAGTTCTAGTTGGGGTTTATATTGTCGTAAG
[4] = test system: DNA aptamer or structured DNA CTTACGACACAGGGCGTGGAGGAGCTGGGCTATTAGGGGTCGTAAG
[5] = test system: DNA aptamer or structured DNA CTTACGACACAGGGGGGGGCTAGGGTGCGCGGAAGCTGGTCGTAAG
[6] = test system: DNA aptamer or structured DNA CTTACGACACCGGGATCCAGATGGGTAGTTTGATGTGTGTCGTAAG
[7] = test system: DNA aptamer or structured DNA CTTACGACAGGCGGTGTGGTGCTGGGAATAGGGATGGTGTCGTAAG
[8] = test system: DNA aptamer or structured DNA CTTACGACATGGGATGTAAGTTAGTGGGTCGGATCCGGGTCGTAAG
[9] = test system: DNA aptamer or structured DNA CTTACGACCGGCGGAAGGCTGGAGGGGTTGGGGGAGGTGTCGTAAG
[10] = test system: DNA aptamer or structured DNA CTTACGACCTGTTCTGAGGGTCAACGGTGGTGTAGTCGGTCGTAAG
[11] = test system: DNA aptamer or structured DNA CTTACGACGAGCGCGTGTGGCCGGCGTGAGGGAGGTGAGTCGTAAG
[12] = test system: DNA aptamer or structured DNA CTTACGACGCGGACGTTGTGGGGCGTGGCAGTCGGTGAGTCGTAAG
[13] = test system: DNA aptamer or structured DNA CTTACGACGCGGACGTTGTGGGGCGTGGCAGTCGGTGGGTCGTAAG
[14] = test system: DNA aptamer or structured DNA CTTACGACGGAGGTTGGGAAGGAGGGGGAGGCCGGAGAGTCGTAAG
[15] = test system: DNA aptamer or structured DNA CTTACGACGGGTAGGCTGAGGGTCTGGAGTGGTTGGAAGTCGTAAG
[16] = test system: DNA aptamer or structured DNA CTTACGACGGGTGCTGTTGGTTCTAGGGTTAGGATGGCGTCGTAAG
[17] = test system: DNA aptamer or structured DNA CTTACGACGGTCTTTTGGGTGTTCTGGGTGGGAGGAGCGTCGTAAG
[18] = test system: DNA aptamer or structured DNA CTTACGACGTGGGAAGTGTGGTTTGTGATCGGATCCGTGTCGTAAG
[19] = test system: DNA aptamer or structured DNA CTTACGACTCAGGGGGAGGCTAGGGTGCGCGGAAGCTGGTCGTAAG
[20] = test system: DNA aptamer or structured DNA CTTACGACTGGGATGTGTTGTTAGTGCTGTCGGATCCGGTCGTAAG
[21] = test system: DNA aptamer or structured DNA GGGACGACACGTGTGGCTGGTAGGGTAGGTCTTGTCGCGTCGTCCC
[22] = test system: DNA aptamer or structured DNA GGGACGACGCAAATGGAAGCATTGGTTGTGTTCACACTGCTGGGTCGTCCC
[23] = test system: DNA aptamer or structured DNA GGGACGACGGAAGGGTGTGCTGCGGTTTGGCTTCTGGCGTCGTCCC
[24] = test system: DNA aptamer or structured DNA GGGACGACGGCAATTGCCGGTGCAGGATCTGAATTATCGTCGTCCC
[25] = test system: DNA aptamer or structured DNA GGGACGACGGCAGGGTGTTGGTGGGGTAGGTCAATGTAGTCGTCCC
[26] = test system: DNA aptamer or structured DNA GGGACGACGGGGCTGTGGGAGGGGGTTCATGGGTCCCGGTCGTCCC
[27] = test system: DNA aptamer or structured DNA GGGACGACGGTTGGCATTGGGTCGGGTGTGGGGGCGGCGTCGTCCC
[28] = test system: DNA aptamer or structured DNA GGGACGACGGTTGGCTTGGGGTCGGGTGTGGGTGCGGCGTCGTCCC
[29] = test system: DNA aptamer or structured DNA GGGACGACTAGCTGGTGCGTTGTCCGAAGTCATGAGTAGTCGTCCC
[30] = test system: DNA aptamer or structured DNA GGGACGACTGCTTGGGTAGGTCGGGTTTGGGTTCGGCGGTCGTCCC
[31] = test system: DNA aptamer or structured DNA TTCAAATCTATGGTGCAGTGCGCAGGGACGGAGGTAAAACATGAGTTTTAGTCTAGATTTGAA
[32] = test system: DNA aptamer or structured DNA TTCAAATCTGAGCAGCCTAGTTACTGACGGGTTTATAGTACTCGCATTGAGTCTAGATTTGAA
[33] = test system: DNA aptamer or structured DNA TTCAAATCTGGCGTTCGGGTTTGTCTTATTGATGGATCAAGTCTAGATTTGAA
[34] = test system: DNA aptamer or structured DNA CTTACGACCTGTTCTGAGGGTCAACCTTTGGTGTAGTGGTCGTAAG
[35] = test system: DNA aptamer or structured DNA TTCAAATCTGAGCAGCCTAGTTACTGACGGGTTTATAGTACTCGCATCGAGTCTAGATTTGAA
Throughout, for binding call: call rule not given here.

binding call [2] | binding call [3] | binding call [5] | binding call [6] | binding call [7] | binding call [9] | binding call [10] | binding call [11] | binding call [13] | binding call [14] | binding call [15] | binding call [21] | binding call [22] | binding call [23] | binding call [25] | binding call [26] | binding call [28] | binding call [30] | binding call [32] | binding call [33] | SMILES | also measured
binds | binds | binds | no binding | binds | binds | no binding | no binding | no binding | no binding | binds | binds | binds | no binding | no binding | no binding | binds | binds | no binding | no binding | CCN(CC)CCOC(=O)c1ccc(N)cc1 | binding call [1]: no binding; binding call [4]: no binding; binding call [8]: no binding; binding call [12]: no binding; binding call [16]: binds; binding call [17]: no binding; binding call [18]: binds; binding call [19]: binds; binding call [20]: binds; binding call [24]: binds; binding call [27]: binds; binding call [29]: no binding; binding call [31]: binds
no binding | no binding | no binding | no binding | no binding | binds | no binding | no binding | no binding | no binding | no binding | binds | binds | no binding | binds | no binding | binds | binds | no binding | no binding | CN(C)CCOC(c1ccccc1)c1ccccc1 | binding call [34]: no binding; binding call [16]: no binding; binding call [17]: no binding; binding call [18]: no binding; binding call [19]: no binding; binding call [20]: no binding; binding call [27]: binds; binding call [31]: no binding; binding call [35]: no binding

SMILES | binding call [2] | binding call [3] | binding call [5] | binding call [6] | binding call [7] | binding call [9] | binding call [10] | binding call [11] | binding call [13] | binding call [14] | binding call [15] | binding call [21] | binding call [22] | binding call [23] | binding call [25] | binding call [26] | binding call [28] | binding call [30] | binding call [32] | binding call [33] | also measured
COC(=O)[C@@H]1C2CCC(C[C@@H]1OC(=O)c1ccccc1)N2C (stereo partly specified) |  |  |  | no binding |  | binds |  | no binding |  | no binding |  | binds | binds | no binding | no binding | no binding | binds | binds | no binding | no binding | Kd [2]: 152 nM; Kd [3]: 345 nM; Kd [4]: 1190 nM; Kd [5]: 155 nM; Kd [7]: 266 nM; Kd [34]: 216 nM; Kd [10]: 53 nM; Kd [12]: 1030 nM; Kd [13]: 372 nM; Kd [15]: 450 nM; Kd [16]: 57 nM; Kd [18]: 168 nM; Kd [19]: 245 nM; Kd [20]: 204 nM; binding call [24]: no binding; binding call [29]: no binding
